In US20100305124A1, “Acylated Aminopyridine and Aminopyridazine Insecticides” (BAYER CROPSCIENCE AG, priority 2009, published 2010):

tested on: common spider mite (Tetranychus urticae); assay: Tetranychus test (TETRUR), sprayed French bean plants; assay type: in vivo; conditions: application rate of 500 ppm; spray on French bean plants
Procedure: Tetranychus Test (TETRUR) Solvent: 3 parts by weight of dimethylformamide Emulsifier: 1 part by weight of polyoxyethylenealkyl phenyl ether An appropriate preparation of active ingredient is prepared by mixing 1 part by weight of active ingredient with the stated amount of solvent and emulsifier and diluting the concentrate with water to the desired concentration. French bean (Phaseolus vulgaris) plants are infested with a mixed population of the common spider mite (Tetranychus urticae) and sprayed with the preparation of active ingredient at the desired concentration. After the desired time, the effect in % is determined: here, 100% means that all of the spider mites have been killed. Conversely, 0% means that no spider mites have been killed.

Q: For `CN(C(=O)c1ccc(Oc2ccc(C(C)(C)C)cc2)nc1)c1cccnc1` [I-127], which “effect in % (spider mites killed)” value is on record?
A: Its value is ≥ 80%.

tested on: green peach aphid (Myzus persicae); assay: Myzus test (MYZUPE spray treatment), Chinese cabbage leaf discs; assay type: in vivo; conditions: foliar, application rate of 500 g/ha, spray on Chinese cabbage discs, read-out: effect in % (aphids killed)
Procedure: Myzus Test (MYZUPE Spray Treatment)
Solvents: 78 parts by weight of acetone • • 1.5 parts by weight of dimethylformamide Emulsifier: 0.5 part by weight of alkylaryl polyglycol ether
An appropriate preparation of active ingredient is prepared by mixing 1 part by weight of active ingredient with the stated amounts of solvents and emulsifier and diluting the concentrate with emulsifier-containing water to the desired concentration.
Discs of Chinese cabbage (Brassica pekinensis) infested with all stages of the green peach aphid (Myzus persicae) are sprayed with a preparation of active ingredient at the desired concentration.
After the desired time, the effect in % is determined. Here, 100% means that all of the aphids have been killed; 0% means that no aphids have been killed.

Q: For `CCC(C)C(=O)Nc1cc(C(=O)N(C)c2cccnc2)ccc1C` (stereo not drawn) [I-311], which pest or weed control at 500 g/ha is on record?
A: The pest or weed control at 500 g/ha was ≥ 80%.

Q: `Cc1ccc(C(=O)N(C)c2cccnc2)cc1NC(=O)C1CCCC1` [I-312] was tested. Which pest or weed control at 500 g/ha did it give?
A: Its pest or weed control at 500 g/ha is ≥ 80%.

Q: `Cc1ccc(C(=O)N(C)c2cccnc2)cc1NC(=O)NC(C)C` [I-314] was tested. Which pest or weed control at 500 g/ha did it give?
A: The pest or weed control at 500 g/ha was ≥ 80%.

Q: Which pest or weed control at 500 g/ha does the source give for `CCCC(=O)Nc1cc(C(=O)N(C)c2cccnc2)ccc1C` [I-315] here?
A: The pest or weed control at 500 g/ha was ≥ 80%.

Q: With `Cc1ccc(C(=O)N(C)c2cccnc2)cc1NC(=O)OC(C)C` [I-316] as the compound, how does the pest or weed control at 500 g/ha read?
A: Its pest or weed control at 500 g/ha is ≥ 80%.

Q: How did the pest or weed control at 500 g/ha turn out when `C/C=C/C(=O)Nc1cc(C(=O)N(C)c2cccnc2)ccc1C` [I-317] was run?
A: The pest or weed control at 500 g/ha was ≥ 80%.

Q: For `CC(C)=CC(=O)Nc1cc(C(=O)N(C)c2cccnc2)ccc1C` [I-318], which pest or weed control at 500 g/ha is on record?
A: Its pest or weed control at 500 g/ha is ≥ 80%.

Q: For `CN(C(=O)c1cn(C)nc1C(F)F)c1ccnnc1` [I-319], which pest or weed control at 500 g/ha is on record?
A: The pest or weed control at 500 g/ha was ≥ 80%.

Q: How did the pest or weed control at 500 g/ha turn out when `CC(F)c1nn(C)cc1C(=O)N(C)c1ccnnc1` (stereo not drawn) [I-321] was run?
A: Its pest or weed control at 500 g/ha is ≥ 80%.

Q: For `CN(C(=O)c1cn(C)nc1C(F)(F)F)c1ccnnc1` [I-322], which pest or weed control at 500 g/ha is on record?
A: Its pest or weed control at 500 g/ha is ≥ 80%.

Q: For `CC(C)c1nn(C)cc1C(=O)N(C)c1ccnnc1` [I-323], which pest or weed control at 500 g/ha is on record?
A: The pest or weed control at 500 g/ha was ≥ 80%.

Q: `CN(C(=O)c1cn(C)nc1C1CC1)c1ccnnc1` [I-324] was tested. Which pest or weed control at 500 g/ha did it give?
A: The pest or weed control at 500 g/ha was ≥ 80%.

Q: How did the pest or weed control at 500 g/ha turn out when `CCc1nn(C)cc1C(=O)N(C)c1ccnnc1` [I-326] was run?
A: The pest or weed control at 500 g/ha was ≥ 80%.

Q: `CCn1cc(C(=O)N(C)c2ccnnc2)c(C)n1` [I-327] was tested. Which pest or weed control at 500 g/ha did it give?
A: The pest or weed control at 500 g/ha was ≥ 80%.

Q: Which pest or weed control at 500 g/ha does the source give for `CC(C)n1ncc(C(=O)N(C)c2cccnc2)c1C(F)(F)F` [I-329] here?
A: Its pest or weed control at 500 g/ha is ≥ 80%.

Q: With `CN(C(=O)c1cnn(CC(F)(F)F)c1C(F)(F)F)c1cccnc1` [I-330] as the compound, how does the pest or weed control at 500 g/ha read?
A: Its pest or weed control at 500 g/ha is ≥ 80%.

Q: With `CCC(=O)Nc1cc(C(=O)N(C)c2cccnc2)ccc1OC` [I-331] as the compound, how does the pest or weed control at 500 g/ha read?
A: The pest or weed control at 500 g/ha was ≥ 80%.

Q: How did the pest or weed control at 500 g/ha turn out when `CCC(C)C(=O)Nc1cc(C(=O)N(C)c2cccnc2)ccc1OC` (stereo not drawn) [I-332] was run?
A: The pest or weed control at 500 g/ha was ≥ 80%.

Q: Which pest or weed control at 500 g/ha does the source give for `COc1ccc(C(=O)N(C)c2cccnc2)cc1NC(=O)C1CCCC1` [I-333] here?
A: Its pest or weed control at 500 g/ha is ≥ 80%.

Q: How did the pest or weed control at 500 g/ha turn out when `COc1ccc(C(=O)N(C)c2cccnc2)cc1NS(=O)(=O)C(C)C` [I-334] was run?
A: The pest or weed control at 500 g/ha was ≥ 80%.

Q: How did the pest or weed control at 500 g/ha turn out when `COCC(=O)Nc1cc(C(=O)N(C)c2cccnc2)ccc1OC` [I-335] was run?
A: The pest or weed control at 500 g/ha was ≥ 80%.

Q: `CCCC(=O)Nc1cc(C(=O)N(C)c2cccnc2)ccc1OC` [I-336] was tested. Which pest or weed control at 500 g/ha did it give?
A: Its pest or weed control at 500 g/ha is ≥ 80%.

Q: With `COc1ccc(C(=O)N(C)c2cccnc2)cc1NC(=O)OC(C)C` [I-337] as the compound, how does the pest or weed control at 500 g/ha read?
A: The pest or weed control at 500 g/ha was ≥ 80%.
